Source: patent US20090318678A1, “Stable C-Glycoside Sugar and C-Glycoconjugate Mimetics, Method for preparing same and uses Thereof in Particular in Cosmetics and Drugs” (TFCHEM, priority 2006, published 2009)

Test system: α-galactosidase and β-galactosidase
Experiment: Test in the presence of glycosidase (resistance to galactosidases, monitored by 19F NMR)
Type: in vitro ADME
Details: phosphate buffer 0.07 M, pH 7, 37° C.; α-galactosidase (5 units) and β-galactosidase (6.25 units); samples after 24, 48, 72, 96 and 120 hours
Protocol: Indeed, it is known that the following compounds undergo enzymatic break-down (FIG. 25).
The protocol used is as follows (FIG. 26)
A solution of compound 17a1 (17.72 mg) in water (500 μl) is added to a solution of phosphate buffer (0.07 M; pH 7, 4 ml) containing α-galactosidase (5 units) and β-galactosidase (6.25 units) at 37° C. The reaction is monitored by ^19F NMR. Samples are taken after 24, 48, 72, 96 and 120 hours.

In the case of `C[C@H](NC(=O)[C@H](C)NC(=O)[C@@H](N)CCCCNC(=O)[C@H](F)[C@]1(O)O[C@H](CO)[C@H](O)[C@H](O)[C@H]1O)C(=O)O` [Compound 17a1], the “resistance to glycosidases / stability (change of the starting product by 19F NMR)” value is reported as “No change is observed and the starting product remains”.
